Measurements: patent publication US20010049372A1, “Antiviral nucleoside analogues” (BioChem Pharma Inc., priority 1998, published 2001)
Like-named read-outs stand apart in the source and are kept apart here. Values belong to the compound of their own block, whether it stands above or below them.

Tests used:
HIV-1IIIB = assay: Anti-HIV-1 antiviral assay with HIV-1IIIB in various cell types (RT activity); type: cell-based; conditions: HIV-1IIIB, MT-2 cells, determined by RT activity; read-out: EC50 (μM) ± S.D. in MT-2 cells
Description: ANTIVIRAL ASSAYS. The anti-HIV-1 activity of the compound A (−) were assessed by employing HIV-1IIIB in a variety of cell types as previously described (Gu et al., 1992, 1994, 1999; Rando et al., 1995; Salomon et al., 1994). Briefly, cells were incubated with virus at a multiplicity of infection (MOI) of 0.005 for T cell assays and an MOI of 0.5 for monocytic cell assays for 3 hrs. Unbound virus was then removed by washing the cells, followed by seeding the cells into a 96-well plate. The infected cells were cultured in the presence of a serial concentrations of the test compound for 5-7 days. The anti-HIV-1 efficacy was determined by testing for HIV-1 RT activity or p24 level in the cell culture supernatants. All assays were performed in duplicate. Zidovudine and/or lamivudine were used as controls in each experiment.
Activity of the compound A (−) against HIV-1 in various cells. Anti-HIV-1 activity of the compound A (−) were tested in different types of cells, including human peripheral […] cells (PBMCs), T-cell (MT-2 and MT-4) and monocytic cell (U937) lines. The compound A (−) had submicromolar EC50s against HIV-1IIIB in different types of cells tested (Table 2).

CBMCs = assay: Cellular toxicity by WST-1 staining; type: cell-based; conditions: Table 4, day 7, read-out: CC50 (μM) WST-1 CBMC
Description: (§1) The cellular toxicity of the compounds were assessed on various cells using [^3H]-thymidine uptake. Various cells, including Molt-4, HT1080, DU-145, HepG-2 and HSF, were plated at a concentration of 1-2×10^3 cells per well (96 well plates). After a 24 hr incubation period, 10-fold serial diluted compounds (b 10^−4 M to 10^−10 M) were added to the culture medium and the cells were further incubated for 72 hrs. [^3H]-thymidine was added during the final 18 hr incubation period. After incubation with the [^3H]-thymidine, the cells were washed once with PBS, treated with trypsin if the cells were adherent, and then resuspended in water (hypotonic lysing of cells). The cellular extract was applied directly to a Tomtec Harvester 96. Using this instrument the extracted DNA is adsorbed onto filters, washed and the incorporated [^3H]-thymidine is then counted. The 50% cytotoxic concentration (CC50) was determined by comparing the radioactive counts per minute of the samples in the presence of the compounds against the control. The cellular toxicity of the compounds was also tested by WST-1 staining through assessing proliferation of MT-2, H9, Jurkat, U937, and CBMCs. The established cell lines were cultured in RPMI medium in 96-well plates at a density of 5×10^4 cells/well while CBMCs were plated at a concentration of 0.5×10^6/well. A 10-fold serial diluted (10^−4-10^−7 M) compound was added at day zero. At day 4, the cells were passaged by changing half medium containing appropriately diluted compound. The cell activities were assessed at day 7 using the WST-1 reagent (Boehringer Mannheim) following the protocol provided by the supplier.
(§2) In the WST-1 staining experiments, cell lines were cultured in RPMI medium in 96-well plates at a density of 5×10^4 cells/well. CBMCs were plated at a concentration of 0.5×10^6/well. Compounds (10^−4-10^−7 M) were added at day zero. Cell viability was assessed on day 7 using the WST-1 reagent (Boehringer Mannheim) following the protocol provided by the supplier.

PBMCs = assay: Cellular toxicity by [3H]-thymidine uptake; type: cell-based, human; conditions: Table 4, 72 hrs
Description: (§3) Cellular toxicity was assessed by [^3H]thymidine uptake (de Muys et al. 1999) and WST-1 staining. In the [^3H]thymidine uptake experiments, Molt-4, HT1080, DU-145, HepG2 and HSF, were plated at a concentration of 1-2×10^3 cells per well (96 well plates). PHA-stimulated PBMCs were cultured at a concentration of 4×10^4 cells per well. Following a 24 hr pre-incubation period, test compounds (10^−4 M to 10^−10 M) were added and the cells were incubated for an additional 72 hrs. [^3H]thymidine was added during the final 18 hr incubation period. The cells were then washed once with PBS, treated with trypsin if the cells were adherent, and resuspended in water (hypotonic lysing of cells). The cellular extract was applied directly to a Tomtec Harvester 96. The 50% cytotoxic concentration (CC50) was determined by comparing the radioactive counts per minute obtained from drug-tested samples to those obtained from the control (untreated) cells.

DU-145 = assay: Cellular toxicity by [3H]-thymidine uptake; type: cell-based; conditions: Table 4, 72 hrs
Description: as §1, §3

HSF = assay: Cellular toxicity by [3H]-thymidine uptake; type: cell-based; conditions: Table 4, 72 hrs
Description: as §1, §3

HT1080 = assay: Cellular toxicity by [3H]-thymidine uptake; type: cell-based; conditions: Table 4, 72 hrs
Description: as §1, §3

HepG-2 = assay: Cellular toxicity by [3H]-thymidine uptake; type: cell-based; conditions: Table 4, 72 hrs
Description: as §1, §3

Molt-4 = assay: Cellular toxicity by [3H]-thymidine uptake; type: cell-based; conditions: Table 4, 72 hrs
Description: as §1, §3

[1] = Preliminary pharmacokinetic study in male adult rats; type: in vivo; conditions: rat
Description: The bioavailability of the compounds were evaluated in male adult rats dosed intravenously through the tail vein (5 mg/kg) and orally (20 mg/kg). The plasma samples were collected at 2, 5, 15, 30, 60, 90, 120 and 240 minutes after intravenous dosing and 5, 15, 30, 60, 90, 120, 240 and 360 minutes after oral dosing.
Blood samples (1 ml) were collected from the rat tails into a vacutainer containing EDTA (3 ml) for both iv and po administrations. Plasma samples were prepared by centrifugation at 2000 ×g for 15 minutes at 4° C.
(§4) Plasma samples (diluted to 1 ml with water) were loaded onto the Abselut Nexus sorbent (# 1210-3100 ) and drawn through under low vacuum (approximately 5′′ Hg). One milliliter of deionized water was added to the sorbent and drawn through under vacuum. The extraction column was dried for 1 minute using a high vacuum (>10′′ Hg). One milliliter of methanol was added to the Abselut Nexus column and the eluent was collected at 1-2 ml/min. The eluent was evaporated to dryness using a Speed Vac, and the samples were reconstituted in 120 μl H2O; 100 μl was used for injection.

[2] = Cellular toxicity by WST-1 staining; type: cell-based; conditions: human, CBMCs, Table 4, day 7, read-out: CC50 (μM) WST-1 CBMC
Description: as §1, §2

[3] = Cellular toxicity by [3H]-thymidine uptake; type: cell-based; conditions: human
Description: as §1, §3

[4] = Body weight gaining effect in mice; type: in vivo; conditions: intraperitoneally, mice (CDI, adult, male), 50 mg/kg/day for 5 days
[5] = Pharmacokinetic study in male and female rats (single dose iv or po); type: in vivo, rat; conditions: parameters of DAPD & DXG after administration of DAPD
Description: Compound A(−), DAPD, and DXG were administrated as a single dose, either intravenously through the jugular vein at 10 mg/kg or orally at 20, 125, 500, 1000 or 2000 mg/kg. All rats were fasted for 12 hours prior to po dosing treatment. The vehicle used for both iv and po administrations was 0.1% carboxymethylcellulose and 0.1% Tween 80 in distilled water, acidified to pH 3.15 with 1N HCl. Blood samples were taken from rats at the times shown in the schedule below for all oral dosing. From a total of 10 rats for each administration, seven time points were taken for the intravenous through the jugular vein dosing (2, 5, 15, 30, 60, 120 and 240 min) and for the oral dosing (5-360 min) at 20 mg/kg, whereas two additional time points at 480 and 1440 min were taken for the oral doses of 125-2000 mg/kg. As a result, each time point was in quadruplicate, except for the 1440 minute time point when blood samples were taken through the jugular vein from all the rats prior to being euthanized.
Blood samples (1 ml) were collected from the rat tails into a vacutainer containing EDTA (3 ml) for both iv and po administrations. Plasma samples were prepared by centrifugation at 2000×g for 15 minutes at 4° C.
as §4, with “(#1210-3100)” for “(# 1210-3100 )”

EC50 (HIV-1IIIB): 0.065 ± 0.039 µM
AUC ([1]; iv 5 mg/kg): 5150 ng·h/mL
Cmax ([1]; iv 5 mg/kg): 29020 ng/mL
T1/2 ([1]; iv 5 mg/kg): 37.2 min
AUC ([1]; oral 20 mg/kg): 910 ng·h/mL
Cmax ([1]; oral 20 mg/kg): 270 ng/mL
Oral BA (%) ([1]; oral 20 mg/kg): 4.43%
T1/2 ([1]; oral 20 mg/kg): 147 min
Compound: Nc1nc2c(ncn2[C@H]2CO[C@@H](CO)O2)c(=O)[nH]1 [DXG, (−)-β-D -1,3-dioxolane guanine]
CC50 (CBMCs): > 100 µM
CC50 (μM) [^3H-]TTP incorporation in: PBMC (PBMCs): >500/250
CC50 (μM) [^3H-]TTP incorporation in: U-145 (DU-145): >500/250
CC50 (HSF; read-out: CC50 (μM) [^3H-]TTP incorporation in: HSF): ≥ 500 µM
CC50 (μM) [^3H-]TTP incorporation in: HT1080 (HT1080): >500/250
CC50 (μM) [^3H-]TTP incorporation in: HepG2 (HepG-2): >500/250
CC50 (μM) [^3H-]TTP incorporation in: Molt-4 (Molt-4): >500/250

half-life ([1]; male, plasma, iv 5 mg/kg): 18.6 min
AUC ([1]; male, plasma, iv 5 mg/kg, read-out: AUC): 5600 ng·h/mL
Cmax ([1]; male, plasma, iv 5 mg/kg, read-out: Cmax): 13300 ng/mL
half-life ([1]; male, plasma, oral 20 mg/kg): 72 min
AUC ([1]; male, plasma, oral 20 mg/kg, read-out: AUC): 3080 ng·h/mL
Cmax ([1]; male, plasma, oral 20 mg/kg, read-out: Cmax): 1120 ng/mL
Oral BA (%) ([1]; oral 20 mg/kg): 13.75%
Compound: Nc1nc(NC2CCC2)c2ncn([C@H]3CO[C@@H](CO)O3)c2n1 [Cmpd B (−), (−)-(2R,4R)-2-hydroxymethyl-4-(2′-amino-6′-cyclobutylamino-purine-9′-yl)-1,3-dioxolane]
CC50 at 7 days [2]: > 100 µM
CC50 (μM) [^3H-]TTP incorporation in: PBMC (PBMCs): 80/90
CC50 at 72 h ([3]; DU-145 cells, Table 4, read-out: CC50 (μM) [^3H-]TTP incorporation in: U-145): 200 µM
CC50 at 72 h ([3]; HT1080 cells, Table 4, read-out: CC50 (μM) [^3H-]TTP incorporation in: HT1080): > 250 µM
CC50 at 72 h ([3]; HepG2 cells, Table 4, read-out: CC50 (μM) [^3H-]TTP incorporation in: HepG2): > 250 µM
CC50 at 72 h ([3]; Molt-4 cells, Table 4, read-out: CC50 (μM) [^3H-]TTP incorporation in: Molt-4): > 250 µM
Mice (50 mg/kg/d): body weight gaining effect [4]: No

AUC ([1]; oral 20 mg/kg): 1890 ng·h/mL
Cmax ([1]; oral 20 mg/kg): 1040 ng/mL
Oral BA (%) ([1]; oral 20 mg/kg): 7.42%
T1/2 ([1]; oral 20 mg/kg): 46.2 min
AUC ([5]; female rat, iv 10 mg/kg): 357.9 µg·min/mL
Cmax ([5]; female rat, iv 10 mg/kg): 22100 ng/mL
T1/2 ([5]; female rat, iv 10 mg/kg): 31.5 min
AUC ([5]; female rat, po 20 mg/kg): 307.2 µg·min/mL
Bioavailability (%) ([5]; female rat, po 20 mg/kg): 43%
Cmax ([5]; female rat, po 20 mg/kg): 2500 ng/mL
T1/2 ([5]; female rat, po 20 mg/kg): 31.3 min
Tmax ([5]; female rat, po 20 mg/kg): 45 min
AUC ([5]; male rat, iv 10 mg/kg): 271.2 µg·min/mL
Cmax ([5]; male rat, iv 10 mg/kg): 16200 ng/mL
T1/2 ([5]; male rat, iv 10 mg/kg): 36.2 min
AUC ([5]; male rat, po 20 mg/kg): 196.5 µg·min/mL
Bioavailability (%) ([5]; male rat, po 20 mg/kg): 36%
Cmax ([5]; male rat, po 20 mg/kg): 1960 ng/mL
T1/2 ([5]; male rat, po 20 mg/kg): 34 min
Tmax ([5]; male rat, po 20 mg/kg): 35 min
Compound: Nc1nc(N)c2ncn([C@H]3CO[C@@H](CO)O3)c2n1 [DAPD, (−)-β-D -2,6-diaminopurine dioxolane]
CC50 (CBMCs): > 100 µM
CC50 (PBMCs; read-out: CC50 (μM) [^3H-]TTP incorporation in: PBMC): > 500 µM
CC50 (DU-145; read-out: CC50 (μM) [^3H-]TTP incorporation in: U-145): > 500 µM
CC50 (μM) [^3H-]TTP incorporation in: HSF (HSF): 500/350
CC50 (HT1080; read-out: CC50 (μM) [^3H-]TTP incorporation in: HT1080): > 500 µM
CC50 (HepG-2; read-out: CC50 (μM) [^3H-]TTP incorporation in: HepG2): ≥ 500 µM
CC50 (Molt-4; read-out: CC50 (μM) [^3H-]TTP incorporation in: Molt-4): > 500 µM
